The text below walks through data of ChEMBL document CHEMBL3991601, “The target landscape of clinical kinase drugs” (Science, 2017).

The target in experiment [1] is T1, Dual specificity mitogen-activated protein kinase kinase 3 (Homo sapiens, UniProt P46734).
T1 sequence (P46734 whole entry): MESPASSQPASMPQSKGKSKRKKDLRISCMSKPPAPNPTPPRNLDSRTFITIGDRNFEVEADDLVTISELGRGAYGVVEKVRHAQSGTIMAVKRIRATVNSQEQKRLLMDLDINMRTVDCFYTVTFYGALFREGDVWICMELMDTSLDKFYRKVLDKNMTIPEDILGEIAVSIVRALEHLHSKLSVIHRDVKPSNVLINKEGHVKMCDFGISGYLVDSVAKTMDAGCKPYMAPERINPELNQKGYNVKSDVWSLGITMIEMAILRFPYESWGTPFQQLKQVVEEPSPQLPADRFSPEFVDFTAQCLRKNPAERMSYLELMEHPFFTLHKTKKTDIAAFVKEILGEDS

Experiment [2] has as its target T2, Peroxisomal acyl-coenzyme A oxidase 1 (Homo sapiens, UniProt Q15067).
T2 sequence (Q15067 whole entry): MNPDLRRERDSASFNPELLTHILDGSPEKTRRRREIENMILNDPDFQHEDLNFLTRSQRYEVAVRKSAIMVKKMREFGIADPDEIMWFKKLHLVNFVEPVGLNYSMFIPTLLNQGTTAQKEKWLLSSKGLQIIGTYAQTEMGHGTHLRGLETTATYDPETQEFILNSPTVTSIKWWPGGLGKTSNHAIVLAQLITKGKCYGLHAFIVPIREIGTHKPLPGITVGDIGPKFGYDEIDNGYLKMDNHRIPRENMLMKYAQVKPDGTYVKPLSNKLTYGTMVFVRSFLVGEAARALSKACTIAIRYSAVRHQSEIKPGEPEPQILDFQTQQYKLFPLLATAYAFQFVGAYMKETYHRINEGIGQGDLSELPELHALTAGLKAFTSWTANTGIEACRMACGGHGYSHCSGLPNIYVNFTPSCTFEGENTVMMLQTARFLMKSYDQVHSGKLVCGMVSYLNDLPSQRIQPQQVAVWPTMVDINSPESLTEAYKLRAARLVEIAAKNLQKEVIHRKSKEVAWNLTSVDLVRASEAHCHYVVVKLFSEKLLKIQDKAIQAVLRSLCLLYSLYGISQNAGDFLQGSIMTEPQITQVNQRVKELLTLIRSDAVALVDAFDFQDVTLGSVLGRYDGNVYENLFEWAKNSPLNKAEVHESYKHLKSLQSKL

Experiment [3] concerns the target T3, Phenylalanine--tRNA ligase beta subunit (Homo sapiens, UniProt Q9NSD9).
T3 sequence (Q9NSD9 whole entry): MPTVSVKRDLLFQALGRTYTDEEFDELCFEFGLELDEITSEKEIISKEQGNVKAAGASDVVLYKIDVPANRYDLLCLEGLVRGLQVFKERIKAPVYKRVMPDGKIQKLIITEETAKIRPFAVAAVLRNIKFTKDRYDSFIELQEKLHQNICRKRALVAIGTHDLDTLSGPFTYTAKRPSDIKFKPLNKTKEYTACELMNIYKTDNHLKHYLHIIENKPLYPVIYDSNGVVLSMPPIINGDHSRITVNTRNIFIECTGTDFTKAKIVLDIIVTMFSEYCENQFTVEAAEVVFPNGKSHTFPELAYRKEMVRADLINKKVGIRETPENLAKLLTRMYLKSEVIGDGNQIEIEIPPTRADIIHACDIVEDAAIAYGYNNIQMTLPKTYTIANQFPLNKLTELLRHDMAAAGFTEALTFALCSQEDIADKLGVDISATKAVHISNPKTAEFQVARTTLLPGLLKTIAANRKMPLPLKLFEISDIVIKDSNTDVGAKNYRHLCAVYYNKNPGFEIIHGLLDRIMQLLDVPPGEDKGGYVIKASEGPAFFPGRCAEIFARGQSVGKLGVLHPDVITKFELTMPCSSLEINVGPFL

The target in experiment [4] is Calcium/calmodulin-dependent protein kinase kinase 2 (Homo sapiens, UniProt Q96RR4).
Experiment [5] deals with T4, EKC/KEOPS complex subunit TP53RK (Homo sapiens, UniProt Q96S44).
T4 sequence (Q96S44 whole entry): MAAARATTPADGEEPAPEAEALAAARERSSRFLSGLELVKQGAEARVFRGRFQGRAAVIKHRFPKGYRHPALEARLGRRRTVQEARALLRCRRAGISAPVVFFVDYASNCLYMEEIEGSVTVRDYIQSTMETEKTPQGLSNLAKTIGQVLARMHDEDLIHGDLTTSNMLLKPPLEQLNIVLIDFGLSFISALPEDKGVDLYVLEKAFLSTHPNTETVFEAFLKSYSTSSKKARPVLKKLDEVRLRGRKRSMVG

The target of experiment [6] is Serine/threonine-protein kinase N2 (Homo sapiens, UniProt Q16513).
Experiment [7] concerns the target Citron Rho-interacting kinase (Homo sapiens, UniProt O14578).
In experiment [8] the target is Mitogen-activated protein kinase kinase kinase 4 (Homo sapiens, UniProt Q9Y6R4).
The target in experiment [9] is Tyrosine-protein kinase FRK (Homo sapiens, UniProt P42685).
For experiment [10], the target named is Mitogen-activated protein kinase 9 (Homo sapiens, UniProt P45984).
The target of experiment [11] is Casein kinase II subunit alpha' (Homo sapiens, UniProt P19784).

Activity calls are given as the source filed them. Rule as the data show it, for most assays here: actives have a measured Kd and inactives only a lower limit.
Also: in the data inactive means no Kd found up to 30 µM.

Serine/threonine-protein kinase N2, sequence (Q16513 whole entry): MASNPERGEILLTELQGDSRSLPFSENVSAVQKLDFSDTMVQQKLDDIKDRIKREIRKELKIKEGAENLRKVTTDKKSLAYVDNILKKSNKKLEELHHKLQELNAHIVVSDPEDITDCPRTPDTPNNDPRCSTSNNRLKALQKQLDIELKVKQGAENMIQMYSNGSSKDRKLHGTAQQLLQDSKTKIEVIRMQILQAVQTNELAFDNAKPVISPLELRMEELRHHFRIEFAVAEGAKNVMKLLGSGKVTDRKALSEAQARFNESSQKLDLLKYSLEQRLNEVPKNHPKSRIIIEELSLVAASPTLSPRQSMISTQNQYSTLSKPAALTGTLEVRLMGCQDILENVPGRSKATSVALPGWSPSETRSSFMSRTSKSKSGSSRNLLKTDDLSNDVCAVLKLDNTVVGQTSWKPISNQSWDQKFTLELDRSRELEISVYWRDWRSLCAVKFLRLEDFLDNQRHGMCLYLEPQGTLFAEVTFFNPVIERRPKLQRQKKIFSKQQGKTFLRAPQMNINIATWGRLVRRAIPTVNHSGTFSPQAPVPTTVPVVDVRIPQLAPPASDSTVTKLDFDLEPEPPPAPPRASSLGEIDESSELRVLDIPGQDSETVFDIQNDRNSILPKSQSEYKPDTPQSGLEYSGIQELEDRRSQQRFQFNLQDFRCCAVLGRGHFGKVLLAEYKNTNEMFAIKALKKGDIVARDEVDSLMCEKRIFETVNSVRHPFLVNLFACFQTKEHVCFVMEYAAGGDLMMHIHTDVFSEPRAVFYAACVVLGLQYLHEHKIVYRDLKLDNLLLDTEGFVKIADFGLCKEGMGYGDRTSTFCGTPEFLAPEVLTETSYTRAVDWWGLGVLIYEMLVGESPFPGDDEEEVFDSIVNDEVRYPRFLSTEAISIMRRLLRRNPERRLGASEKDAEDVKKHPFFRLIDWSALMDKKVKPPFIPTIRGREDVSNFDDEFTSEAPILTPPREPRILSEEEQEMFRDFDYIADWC
Mitogen-activated protein kinase 9, sequence (P45984 whole entry): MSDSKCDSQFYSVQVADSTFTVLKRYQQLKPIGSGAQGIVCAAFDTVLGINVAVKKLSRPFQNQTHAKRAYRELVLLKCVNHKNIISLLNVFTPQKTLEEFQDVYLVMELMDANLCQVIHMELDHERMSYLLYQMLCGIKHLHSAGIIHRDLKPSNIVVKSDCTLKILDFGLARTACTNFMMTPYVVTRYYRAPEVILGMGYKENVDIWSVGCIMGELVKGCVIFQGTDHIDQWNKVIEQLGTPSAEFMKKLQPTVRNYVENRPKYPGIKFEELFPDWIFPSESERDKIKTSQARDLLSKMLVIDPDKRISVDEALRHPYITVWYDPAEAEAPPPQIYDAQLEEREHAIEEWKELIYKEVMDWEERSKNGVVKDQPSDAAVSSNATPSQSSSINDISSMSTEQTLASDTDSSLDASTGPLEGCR
Calcium/calmodulin-dependent protein kinase kinase 2, sequence (Q96RR4 whole entry): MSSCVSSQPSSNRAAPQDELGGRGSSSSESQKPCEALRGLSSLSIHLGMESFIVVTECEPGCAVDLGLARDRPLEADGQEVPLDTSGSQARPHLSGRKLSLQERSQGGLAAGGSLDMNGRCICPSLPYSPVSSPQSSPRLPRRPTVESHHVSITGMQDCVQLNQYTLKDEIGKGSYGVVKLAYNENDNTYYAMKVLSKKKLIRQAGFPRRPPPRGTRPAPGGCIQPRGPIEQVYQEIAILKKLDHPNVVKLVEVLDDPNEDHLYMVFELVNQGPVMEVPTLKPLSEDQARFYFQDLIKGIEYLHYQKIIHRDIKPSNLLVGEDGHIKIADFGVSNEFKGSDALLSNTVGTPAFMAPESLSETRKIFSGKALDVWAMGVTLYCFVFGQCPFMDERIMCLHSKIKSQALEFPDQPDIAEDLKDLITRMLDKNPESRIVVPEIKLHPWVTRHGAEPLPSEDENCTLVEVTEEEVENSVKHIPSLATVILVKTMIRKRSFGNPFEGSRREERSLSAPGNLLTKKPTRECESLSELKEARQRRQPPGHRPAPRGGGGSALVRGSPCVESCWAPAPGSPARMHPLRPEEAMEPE
Mitogen-activated protein kinase kinase kinase 4, sequence (Q9Y6R4 whole entry): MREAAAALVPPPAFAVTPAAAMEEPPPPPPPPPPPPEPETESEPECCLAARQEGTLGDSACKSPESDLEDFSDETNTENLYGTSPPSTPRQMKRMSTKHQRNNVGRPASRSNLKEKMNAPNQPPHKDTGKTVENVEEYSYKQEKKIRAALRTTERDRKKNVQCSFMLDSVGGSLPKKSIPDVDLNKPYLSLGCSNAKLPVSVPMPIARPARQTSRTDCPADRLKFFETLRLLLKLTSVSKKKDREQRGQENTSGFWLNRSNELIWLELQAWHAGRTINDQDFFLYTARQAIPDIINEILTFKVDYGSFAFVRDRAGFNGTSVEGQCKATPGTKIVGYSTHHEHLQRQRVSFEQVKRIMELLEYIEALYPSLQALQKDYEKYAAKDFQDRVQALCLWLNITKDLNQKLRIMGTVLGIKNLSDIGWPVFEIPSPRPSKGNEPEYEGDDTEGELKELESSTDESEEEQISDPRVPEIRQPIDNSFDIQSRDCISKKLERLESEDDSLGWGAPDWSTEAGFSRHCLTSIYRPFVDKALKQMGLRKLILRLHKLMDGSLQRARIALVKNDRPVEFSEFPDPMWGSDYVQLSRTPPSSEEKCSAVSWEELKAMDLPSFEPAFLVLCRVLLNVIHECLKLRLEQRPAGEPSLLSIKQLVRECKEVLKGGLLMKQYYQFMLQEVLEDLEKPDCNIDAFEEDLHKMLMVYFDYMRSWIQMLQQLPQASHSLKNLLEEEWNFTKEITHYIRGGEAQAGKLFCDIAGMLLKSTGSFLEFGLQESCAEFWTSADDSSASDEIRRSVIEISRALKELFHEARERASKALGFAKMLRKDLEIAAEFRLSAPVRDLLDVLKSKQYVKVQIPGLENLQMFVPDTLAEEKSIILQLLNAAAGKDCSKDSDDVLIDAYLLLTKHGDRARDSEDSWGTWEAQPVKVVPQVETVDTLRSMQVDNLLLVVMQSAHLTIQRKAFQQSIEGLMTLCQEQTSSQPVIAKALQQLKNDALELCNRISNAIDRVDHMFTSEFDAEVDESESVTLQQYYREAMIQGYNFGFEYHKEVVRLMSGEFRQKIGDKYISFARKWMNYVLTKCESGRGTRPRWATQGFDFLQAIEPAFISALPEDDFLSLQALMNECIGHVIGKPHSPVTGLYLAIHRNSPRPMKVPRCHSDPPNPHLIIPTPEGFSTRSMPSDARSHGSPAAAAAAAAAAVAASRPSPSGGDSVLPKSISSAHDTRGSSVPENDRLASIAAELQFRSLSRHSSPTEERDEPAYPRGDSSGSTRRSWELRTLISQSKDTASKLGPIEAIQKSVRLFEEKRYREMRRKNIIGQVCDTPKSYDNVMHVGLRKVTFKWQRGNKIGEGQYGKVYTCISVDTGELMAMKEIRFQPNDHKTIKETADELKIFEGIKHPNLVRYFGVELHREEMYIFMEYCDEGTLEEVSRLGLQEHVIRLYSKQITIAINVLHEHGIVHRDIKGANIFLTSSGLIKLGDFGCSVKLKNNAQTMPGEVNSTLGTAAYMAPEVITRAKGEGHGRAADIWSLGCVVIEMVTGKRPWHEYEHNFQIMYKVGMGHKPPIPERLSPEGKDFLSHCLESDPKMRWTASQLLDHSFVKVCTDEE
Casein kinase II subunit alpha', sequence (P19784 whole entry): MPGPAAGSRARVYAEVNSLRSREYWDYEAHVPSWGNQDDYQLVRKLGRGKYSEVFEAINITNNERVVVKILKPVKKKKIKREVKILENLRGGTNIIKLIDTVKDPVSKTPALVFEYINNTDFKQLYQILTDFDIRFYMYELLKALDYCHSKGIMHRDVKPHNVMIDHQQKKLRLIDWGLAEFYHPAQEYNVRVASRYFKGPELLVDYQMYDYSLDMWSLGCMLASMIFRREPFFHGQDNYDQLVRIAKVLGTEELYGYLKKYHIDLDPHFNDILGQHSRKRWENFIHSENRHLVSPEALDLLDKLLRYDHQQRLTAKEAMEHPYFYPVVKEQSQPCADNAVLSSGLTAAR
Tyrosine-protein kinase FRK, sequence (P42685 whole entry): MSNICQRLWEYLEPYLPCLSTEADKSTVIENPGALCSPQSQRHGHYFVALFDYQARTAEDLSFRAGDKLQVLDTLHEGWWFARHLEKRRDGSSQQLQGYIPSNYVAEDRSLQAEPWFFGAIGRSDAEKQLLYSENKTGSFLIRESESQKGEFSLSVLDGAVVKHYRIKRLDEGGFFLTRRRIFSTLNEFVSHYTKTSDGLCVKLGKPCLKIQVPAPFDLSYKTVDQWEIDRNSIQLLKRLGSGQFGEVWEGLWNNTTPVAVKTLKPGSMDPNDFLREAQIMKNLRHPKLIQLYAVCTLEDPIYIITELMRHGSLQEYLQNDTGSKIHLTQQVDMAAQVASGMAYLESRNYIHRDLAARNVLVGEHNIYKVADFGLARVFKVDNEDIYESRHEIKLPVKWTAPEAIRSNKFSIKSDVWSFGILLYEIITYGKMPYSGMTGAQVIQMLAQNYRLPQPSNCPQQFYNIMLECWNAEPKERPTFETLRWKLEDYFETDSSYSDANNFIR

With `CC[C@@H]1C(=O)N(C)c2cnc(Nc3ccc(C(=O)N[C@H]4CC[C@H](N5CCN(CC6CC6)CC5)CC4)cc3OC)nc2N1C(C)C` [VOLASERTIB], the Kd (as a rule, a measure of binding affinity in units of concentration) is > 30 µM (inactive) in experiment [1]; > 30 µM (inactive) in experiment [2]; > 30 µM (inactive) in experiment [3]; 0.195 µM (active) in experiment [4]; > 30 µM (inactive) in experiment [5]; > 30 µM (inactive) in experiment [6]. Besides, the Kd in experiment [7], in experiment [8], in experiment [9], in [10] and in experiment [11] was > 30 µM (inactive) each time.

Consider `Cc1ccc(S(=O)(=O)Nc2nc3ccccc3nc2Nc2ccc3nsnc3c2)cc1`, for which the Kd in experiment [1], in experiment [2], in [3], in [4], in experiment [5] and in experiment [6] was > 30 µM (inactive) each time. Also, the Kd in experiment [7], in experiment [8], in experiment [9], in experiment [10] and in [11] was > 30 µM (inactive) throughout.

Turning to `Cn1cc(-c2ccc(F)c(C(F)(F)F)c2)nc1C1CCN(c2ncnc3[nH]ncc23)CC1` [LY-2584702], the Kd in [1], in [2], in experiment [3], in experiment [4], in [5] and in experiment [6] was > 30 µM (inactive) throughout. In addition, the Kd in [7], in experiment [8], in [9], in experiment [10] and in experiment [11] was > 30 µM (inactive) in each case.

`CCn1c(=O)c(-c2cc[nH]n2)cc2c(C)nc(N)nc21` [VOXTALISIB]: the Kd in experiment [1], in experiment [2], in experiment [3], in experiment [4], in experiment [5] and in experiment [6] was > 30 µM (inactive) in each case. Besides, the Kd in [7], in [8], in experiment [9], in experiment [10] and in experiment [11] was > 30 µM (inactive) in each case.

As to `CO[C@H]1C[C@@H]2CC[C@@H](C)[C@@](O)(O2)C(=O)C(=O)N2CCCC[C@H]2C(=O)O[C@H]([C@H](C)C[C@@H]2CC[C@@H](OCCO)[C@H](OC)C2)CC(=O)[C@H](C)/C=C(\C)[C@@H](O)[C@@H](OC)C(=O)[C@H](C)C[C@H](C)/C=C/C=C/C=C/1C` [EVEROLIMUS], the Kd in experiment [1], in experiment [2], in experiment [3], in [4], in experiment [5] and in experiment [6] was > 30 µM (inactive) in each case. The Kd in [7], in experiment [8], in experiment [9], in experiment [10] and in experiment [11] was > 30 µM (inactive) each time.

For the compound `CCCS(=O)(=O)Nc1ccc(F)c(C(=O)c2c[nH]c3ncc(-c4ccc(Cl)cc4)cc23)c1F` [VEMURAFENIB], the Kd in experiment [1], in experiment [2], in [3], in [4], in experiment [5] and in experiment [6] was > 30 µM (inactive) in each case. Further, the Kd in [7], in experiment [8], in experiment [9], in experiment [10] and in experiment [11] was > 30 µM (inactive) throughout.

Take `O=C(Nc1ccc(-c2ccnc(Nc3ccc(N4CCOCC4)cc3)n2)cc1)C1CCCN1` (stereo not drawn) [XL-019]: the Kd in experiment [1], in experiment [2], in [3], in experiment [4], in experiment [5] and in experiment [6] was > 30 µM (inactive) each time. In addition, the Kd in [7] was 3.62 µM (active); in experiment [8], > 30 µM (inactive); in experiment [9], > 30 µM (inactive); in experiment [10] it was > 30 µM (inactive); in experiment [11] it was 7.15 µM (active).

On to `Cn1ncc(Cl)c1-c1cc(C(=O)N[C@H](CN)Cc2cccc(F)c2)sc1Cl` [AFURESERTIB], for which the Kd in experiment [1], in experiment [2], in [3], in [4], in experiment [5] and in [6] was > 30 µM (inactive) in each case. Also, the Kd in [7] is 4.26 µM (active); in experiment [8], > 30 µM (inactive); in [9] it was > 30 µM (inactive); in [10], > 30 µM (inactive); in experiment [11], > 30 µM (inactive).

For the compound `C=CC(=O)N1CCC(Oc2cc3c(Nc4ccc(Cl)c(Cl)c4F)ncnc3cc2OC)CC1` [POZIOTINIB], the Kd in [1], in experiment [2], in experiment [3], in experiment [4], in [5] and in experiment [6] was > 30 µM (inactive) in each case. Further, the Kd in experiment [7], in experiment [8], in [9] and in experiment [10] was > 30 µM (inactive) throughout.

For `Cc1ccc(-n2nc(C(C)(C)C)cc2NC(=O)NCc2cc(F)ccc2Oc2ccc3c(cnn3CCO)c2)cc1` [PEXMETINIB], the Kd in experiment [1], in [3], in [4], in experiment [5], in experiment [6] and in experiment [7] was > 30 µM (inactive) in each case. The Kd in experiment [8] is > 30 µM (inactive); in experiment [9] it was 1.55 µM (active); in experiment [10], 0.312 µM (active); in [11], > 30 µM (inactive).

`COCCNCc1ccc(-c2cc3nccc(Oc4ccc(NC(=S)NC(=O)Cc5ccc(F)cc5)cc4F)c3s2)nc1` [GLESATINIB]: the Kd in [1], in [3], in experiment [4], in experiment [5], in [6] and in experiment [7] was > 30 µM (inactive) in each case. In addition, the Kd was > 30 µM (inactive) in experiment [8], 1.1 µM (active) in experiment [9], > 30 µM (inactive) in experiment [10] and > 30 µM (inactive) in experiment [11].
